Values quoted from earlier work, collected in patent publication EP1072609A2, “Cytoprotective agents comprising prosaposin-related peptides” (Sakanaka, Masahiro, priority 1999, dated 2001).
Ends that are not written are not given here.

Tests used:
[1] = test system: neurons in the ischemic penumbra of the cerebral cortex; details: intracerebroventricular infusion
[2] = intravenous administration

Question: Which “expression of Bcl-xL” value (Bcl-xL) does the source give for `CC(C)=CCC[C@](C)(O[C@@H]1O[C@H](CO[C@@H]2O[C@H](CO)[C@@H](O)[C@H](O)[C@H]2O)[C@@H](O)[C@H](O)[C@H]1O)[C@H]1CC[C@]2(C)[C@@H]1[C@H](O)C[C@@H]1[C@@]3(C)CC[C@H](O[C@@H]4O[C@H](CO)[C@@H](O)[C@H](O)[C@H]4O[C@@H]4O[C@H](CO)[C@@H](O)[C@H](O)[C@H]4O)C(C)(C)[C@@H]3CC[C@]12C` [ginsenoside Rb1] here?
Answer: stimulates

Question: And the cortical infarction [1]?
Answer: ameliorate

Question: And the place navigation disability [1]?
Answer: ameliorate

Question: With LSELIINNATEELLIKGL [18-MP] as the compound, how does the “share of intravenously administered peptide transferred into the brain” value [2] read?
Answer: approximately 0.03%
